Experimental data published in US6821980B1, “Substituted 5-benzyl-2,4-diaminopyrimidines” (Basilea Pharmaceutica AG, priority 1999, dated 2004).
Converted amounts (≈) assume the structure as drawn. Like-named read-outs stand apart in the source and are kept apart here.

Experiments:
[1] = system: Streptococcus pneumoniae 1/1; assay: MIC against Streptococcus pneumoniae 1/1; type: cell-based; conditions: Streptococcus pneumoniae 1/1, trimethoprim- and penicillin-resistant, serotype 6, clinical isolate, read-out: MIC Sp1/1
[2] = system: Staphylococcus aureus 101; assay: MIC against Staphylococcus aureus 101; type: cell-based; conditions: Staphylococcus aureus 101, MRSA- and trimethoprim-resistant, clinical isolate, read-out: MIC Sa101
[3] = target: T1, purified DHFR of strain Sp1/1 of Streptococcus pneumoniae (Streptococcus pneumoniae serotype 4, UniProt Q54801); type: biochemical; conditions: IC50 against purified DHFR of strain Sp1/1
T1 sequence (Q54801 1-168 I100L): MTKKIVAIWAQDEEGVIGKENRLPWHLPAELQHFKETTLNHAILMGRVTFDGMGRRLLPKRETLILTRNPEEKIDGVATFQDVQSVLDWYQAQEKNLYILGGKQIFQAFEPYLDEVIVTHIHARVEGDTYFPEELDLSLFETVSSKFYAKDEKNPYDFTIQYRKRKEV

[4] = target: purified DHFR of strain 157/4696 of Staphylococcus aureus (Staphylococcus aureus, UniProt P13955); assay: biochemical
Chain of purified DHFR of strain 157/4696 of Staphylococcus aureus (P13955 whole entry): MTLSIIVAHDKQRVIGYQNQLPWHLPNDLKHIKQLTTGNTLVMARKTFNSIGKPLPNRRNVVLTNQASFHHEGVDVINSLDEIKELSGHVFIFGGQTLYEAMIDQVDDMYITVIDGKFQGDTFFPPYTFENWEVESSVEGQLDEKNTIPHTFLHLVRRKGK

SMILES	MIC ([1]; Table 2)	MIC ([2]; Table 2)	IC50 ([3]; Table 2)	IC50 [4]	MIC ([1]; Table 1)	MIC ([2]; Table 1)	IC50 ([3]; Table 1)
CCOc1cc(Cc2cnc(N)nc2N)cc(OS(=O)(=O)N(C)C(C)C)c1-c1cccc(N)c1 [Example 19-d, N-Isopropyl-N-methyl-sulphamic acid 3′-amino-4-(2,4-diamino-pyrimidin-5-ylmethyl)-6-ethoxy-biphenyl-2-yl ester]	2 µg/mL (≈ 4.11 µM)	2 µg/mL (≈ 4.11 µM)	8.3 nM	55 nM	–	–	–
CCOc1cc(Cc2cnc(N)nc2N)cc(OS(=O)(=O)N2CCOCC2)c1-c1cccc(N)c1 [Example 19-e, Morpholine-4-sulphonic acid 3′-amino-4-(2,4-diamino-pyrimidin-5-ylmethyl)-6-ethoxy-biphenyl-2-yl ester]	1 µg/mL (≈ 2 µM)	2 µg/mL (≈ 4 µM)	3.9 nM	38 nM	–	–	–
CCOc1cc(Cc2cnc(N)nc2N)cc(OS(=O)(=O)N(C)CC)c1-c1cccc(N)c1 [Example 19-f, N-Ethyl-N-methyl-sulphamic acid 3′-amino-4-(2,4-diamino-vyrimidin-5-ylmethyl)-6-ethoxy-biphenyl-2-yl ester]	1 µg/mL (≈ 2.12 µM)	1 µg/mL (≈ 2.12 µM)	6.2 nM	82 nM	–	–	–
CCOc1cc(Cc2cnc(N)nc2N)cc(OS(=O)(=O)N(C)C2CC2)c1-c1cccc(N)c1 [Example 19-g, N-Cclopropyl-N-methyl-sulphamic acid 3′-amino-4-(2,4-diamino-Ryrimidin-5-ylmethyl)-6-ethoxy-biphenyl-2-yl ester]	1 µg/mL (≈ 2.06 µM)	1 µg/mL (≈ 2.06 µM)	6.8 nM	56 nM	–	–	–
CCOc1cc(Cc2cnc(N)nc2N)cc(OS(=O)(=O)N(CC)CC)c1-c1cccc(N)c1 [Example 19-h, Diethyl-sulphamic acid 3′-amino-4-(2,4-diamino-pyrimidin-5-ylmethyl)-6-ethoxy-biphenyl-2-yl ester]	1 µg/mL (≈ 2.06 µM)	2 µg/mL (≈ 4.11 µM)	0.55 nM	160 nM	–	–	–
CCOc1cc(Cc2cnc(N)nc2N)cc(OS(=O)(=O)N(C)C)c1-c1ccc(O)cc1 [Example 20-a, Dimethyl-sulphamic acid 4-(2,4-diamino-pyrimidin-5-ylmethyl)-6-ethoxy-4′-hydroxy-biphenyl-2-yl ester]	1 µg/mL (≈ 2.18 µM)	2 µg/mL (≈ 4.35 µM)	7.5 nM	150 nM	–	–	–
CCOc1cc(Cc2cnc(N)nc2N)cc(OS(=O)(=O)N2CCCCC2)c1-c1ccc(O)cc1 [Example 20-b, Piperidine-1-sulphonic acid 4-(2,4-diamino-pyrimidin-5-ylmethyl)-6-ethoxy-4′-hydroxy-biphenyl-2-yl ester]	0.5 µg/mL (≈ 1 µM)	1 µg/mL (≈ 2 µM)	1.8 nM	140 nM	–	–	–
CCOc1cc(Cc2cnc(N)nc2N)cc(OS(=O)(=O)N2CCCC2)c1-c1ccc(O)cc1 [Example 20-c, Pyrrolidine-1-sulrbonic acid 4-(2,4-diamino-pyrimidin-5-ylmethyl)-6-ethoxy-4′-hydroxy-biphenyl-2-yl ester]	1 µg/mL (≈ 2.06 µM)	4 µg/mL (≈ 8.24 µM)	8.1 nM	180 nM	–	–	–
CCOc1cc(Cc2cnc(N)nc2N)cc(OS(=O)(=O)N2CCOCC2)c1-c1ccc(O)cc1 [Example 20-d, Morpholine-4-sulphonic acid 4-(2,4-diamino-pyrimidin-5-ylmethyl)-6-ethoxy-4′-hydroxy-biphenyl-2-yl ester]	1 µg/mL (≈ 1.99 µM)	8 µg/mL (≈ 16 µM)	5.8 nM	95 nM	–	–	–
CCOc1cc(Cc2cnc(N)nc2N)cc(OS(=O)(=O)N(C)C(C)C)c1-c1ccc(O)cc1 [Example 20-e, N-Isopropyl-N-methyl-sulphamic acid 4-(2,4-diamino-pvrimidin-5-ylmethyl)-6-ethoxy-4′-hydroxy-biphenyl-2-yl ester]	2 µg/mL (≈ 4.1 µM)	2 µg/mL (≈ 4.1 µM)	14 nM	160 nM	–	–	–
CCOc1cc(Cc2cnc(N)nc2N)cc(OS(=O)(=O)N(C)C2CC2)c1-c1ccc(O)cc1 [Example 20-f, N-Cyclopropld-N-methyl-sulphamic acid 4-(2,4-diamino-pyrimidin-5-ylmethyl)-6-ethoxy-4′-hydroxy-biphenyl-2-yl ester]	1 µg/mL (≈ 2.06 µM)	1 µg/mL (≈ 2.06 µM)	9.8 nM	140 nM	–	–	–
CCOc1cc(Cc2cnc(N)nc2N)cc(OS(=O)(=O)N(C)CC)c1-c1ccc(O)cc1 [Example 20-g, N-Ethyl-N-methyl-sulphamic acid 4-(2,4-diamino-pyrimidin-5-ylmethyl)-6-ethoxy-4′-hydroxy-biphenyl-2-yl ester]	1 µg/mL (≈ 2.11 µM)	2 µg/mL (≈ 4.22 µM)	7.2 nM	160 nM	–	–	–
CCOc1cc(Cc2cnc(N)nc2N)cc(OS(=O)(=O)N(CC)CC)c1-c1ccc(O)cc1 [Example 20-h, Diethyl-sulphamic acid 4-(2,4-diamino-pyrimidin-5-ylmethyl)-6-ethoxy-4′-hydroxy-biphenyl-2-yl ester]	1 µg/mL (≈ 2.05 µM)	2 µg/mL (≈ 4.1 µM)	9.2 nM	350 nM	–	–	–
CCOc1cc(Cc2cnc(N)nc2N)cc(OS(=O)(=O)N(C)C)c1-c1ccc(OC)cc1 [Example 21-, Dimethylsulphamic acid 4-(2,4-diamino-pyrimidin-5-ylmethyl)-6-ethoxy-4′-methoxy-biphenyl-2-yl ester]	2 µg/mL (≈ 4.22 µM)	2 µg/mL (≈ 4.22 µM)	52 nM	130 nM	–	–	–
CCOc1cc(Cc2cnc(N)nc2N)cc(OS(=O)(=O)N(C)C)c1-c1ccc(N)cc1 [Example 22-a, Dimethylsulphamic acid 4′-amino-4-(2,4-diamino-pyrimidin-5-ylmethyl)-6-ethoxy-biphenyl-2-yl ester]	1 µg/mL (≈ 2.18 µM)	2 µg/mL (≈ 4.36 µM)	3.1 nM	48 nM	–	–	–
CCOc1cc(Cc2cnc(N)nc2N)cc(OS(=O)(=O)N(C)CC)c1-c1ccc(N)cc1 [Example 22-b, N-Ethyl-N-methyl-sulphamic acid 4′-amino-4-(2,4-diamino-pyrimidin-5-ylmethyl)-6-ethoxy-biphenyl-2-yl ester]	1 µg/mL (≈ 2.12 µM)	1 µg/mL (≈ 2.12 µM)	2.3 nM	38 nM	–	–	–
CCOc1cc(Cc2cnc(N)nc2N)cc(OS(=O)(=O)N2CCCC2)c1-c1ccc(N)cc1 [Example 22-c, Pyrrolidine-1-sulphonic acid 4′-amino-4-(2,4-diamino-Ryrimidin-5-ylmethyl)-6-ethoxy-biphenyl-2-yl ester]	1 µg/mL (≈ 2.06 µM)	1 µg/mL (≈ 2.06 µM)	3.3 nM	140 nM	–	–	–
CCOc1cc(Cc2cnc(N)nc2N)cc(OS(=O)(=O)N2CCOCC2)c1-c1ccc(N)cc1 [Example 22-d, Morpholine-4-sulphonic acid 4′-amino-4-(2,4-diamino-pyrimidin-5-ylmethyl)-6-ethoxy-biphenyl-2-yl ester]	1 µg/mL (≈ 2 µM)	2 µg/mL (≈ 4 µM)	6.1 nM	45 nM	–	–	–
CCOc1cc(Cc2cnc(N)nc2N)cc(OS(=O)(=O)N(CC)CC)c1-c1ccc(N)cc1 [Example 22-f, Diethylsulphamic acid 4′-amino-4-(2,4-diamino-pyrimidin-5-ylmethyl)-6-ethoxy-biphenyl-2-yl ester]	1 µg/mL (≈ 2.06 µM)	2 µg/mL (≈ 4.11 µM)	14 nM	150 nM	–	–	–
CCOc1cc(Cc2cnc(N)nc2N)cc(OS(=O)(=O)N(C)C2CC2)c1-c1ccc(N)cc1 [Example 22e, N-Cyclopropyl-N-methyl-sulphamic acid 4′-amino-4-(2,4-diamino-pyrimidin-5-ylmethyl)-6-ethoxy-biphenyl-2-yl ester]	–	–	–	150 nM	1 µg/mL (≈ 2.06 µM)	2 µg/mL (≈ 4.13 µM)	13 nM
CCOc1cc(Cc2cnc(N)nc2N)cc(OCC2CC2)c1-c1ccc(CN2CCOCC2)s1 [Example 23-, 5-[3-Cyclopropylmethoxy-5-ethoxy-4-(5-morpholin-4-ylmethyl-thiophen-2-yl)-benzyl]-pyrimidine-2,4-diamine]	1 µg/mL (≈ 2.02 µM)	8 µg/mL (≈ 16.1 µM)	8 nM	2600 nM	–	–	–
CCOc1cc(Cc2cnc(N)nc2N)cc(OS(=O)(=O)C2CC2)c1-c1ccc(CN2CCOCC2)s1 [Example 24-, Cyclopropanesulphonic acid 5-(2,4-diamino-pyrimidin-5-ylmethyl)-3-ethoxy-2-(5-morpholin-4-ylmethyl-thiophen-2-yl)-phenyl ester]	1 µg/mL (≈ 1.83 µM)	4 µg/mL (≈ 7.33 µM)	16 nM	190 nM	–	–	–
CCOc1cc(Cc2cnc(N)nc2N)cc(OS(=O)(=O)N(C)C)c1-c1ccc(NC)cc1 [Example 26-a, Dimethylsulphamic acid 4-(2,4-diamino-pyrimidin-5-ylmethyl)-6-ethoxy-4′-methylamino-biphenyl-2-yl ester]	1 µg/mL (≈ 2.12 µM)	1 µg/mL (≈ 2.12 µM)	2.1 nM	130 nM	–	–	–
CCOc1cc(Cc2cnc(N)nc2N)cc(OS(=O)(=O)N(C)CC)c1-c1ccc(NC)cc1 [Example 26-b, N-Ethyl-N-methyl-sulphamic acid 4-(2,4-diamino-pvrimidin-5-ylmethyl)-6-ethoxy-4′-methylamino-biphenyl-2-yl ester]	1 µg/mL (≈ 2.06 µM)	1 µg/mL (≈ 2.06 µM)	1.9 nM	170 nM	–	–	–
CCOc1cc(Cc2cnc(N)nc2N)cc(OS(=O)(=O)N(C)C2CC2)c1-c1ccc(NC)cc1 [Example 26-d, N-Cyclopropyl-N-methyl-sulphamic acid 4-(2,4-diamino-pyrimidin-5-ylmethyl)-6-ethoxy-4′-methylamino-biphenyl-2-yl ester]	1 µg/mL (≈ 2.01 µM)	1 µg/mL (≈ 2.01 µM)	5.1 nM	140 nM	–	–	–
